IC50 data for four compounds are collected here from US9492460B2, “Carbazole compounds useful as bromodomain inhibitors” (Bristol-Myers Squibb Company, priority 2013, dated 2016).

The target in the assay is T1, bromodomain BRD4 (44-168), BRD4 (333-460), and BRD4 (1-477 or 44-460) (Homo sapiens, UniProt O60885).
T1 construct: BRD4(44-168), BRD4(333-460), BRD4(44-460), BRD4(1-477), O60885-1; fused on or other part: N-terminal BirA biotinylation motif, biotinylated; The TVMV-cleavable His6 tag is removed, except in some BRD4(44-460) runs detected with anti-His terbium cryptate
Kind of assay: Time Resolved Fluorescence Resonance Energy Transfer (TR-FRET) binding assay. As to conditions: one of the FRET assays described.

Bounds are passed on as bounds.

Consider `Cc1noc(C)c1-c1cc(C(N)=O)c2c3ccc(C(=O)N4CCOCC4)cc3n(C(c3ccccc3)c3ccccc3)c2c1` [Example 196, 2-(3,5-Dimethyl-4-isoxazolyl)-9-(diphenylmethyl)-7-(4-morpholinylcarbonyl)-9H-carbazole-4-carboxamide], for which the IC50 is less than 50 nM. With `Cc1noc(C)c1-c1cc(C(N)=O)c2c3ccc(C(C)(C)O)cc3n(CC3CCOCC3)c2c1` [Example 197, 2-(3,5-dimethyl-4-isoxazolyl)-7-(1-hydroxy-1-methylethyl)-9-(tetrahydro-2H-pyran-4-ylmethyl)-9H-carbazole-4-carboxamide], the half-inhibitory concentration (IC50) is less than 50 nM.

Turning to `COC(C)(C)c1ccc2c3c(C(N)=O)cc(-c4c(C)noc4C)cc3n([C@H](c3ccccc3)C3CCOCC3)c2c1` [Example 228, 2-(Dimethyl-1,2-oxazol-4-yl)-7-(2-methoxypropan-2-yl)-9-[(S)-oxan-4-yl(phenyl)methyl]-9H-carbazole-4-carboxamide], the half-maximal inhibitory concentration (IC50) was less than 50 nM. Next, `Cc1noc(C)c1-c1cc(C(N)=O)c2c3ccc(C(C)C)cc3n([C@H](c3ccccc3)C3CCOCC3)c2c1` [Example 229, 2-(Dimethyl-1,2-oxazol-4-yl)-9-[(S)-oxan-4-yl(phenyl)methyl]-7-(propan-2-yl)-9H-carbazole-4-carboxamide]: less than 50 nM.
